Data reported in patent publication US20070134657A1, “Methods and compositions relating to gradient exposed cells” (GENERAL HOSPITAL CORPORATION, THE, priority 2002, published 2007).

Legend:
human neutrophils [1] = experiment: Effect of signaling pathway inhibitors on directional neutrophil migration in IL-8 gradients (microfluidic device); assay type: cell-based
Source text: (§1) Microfluidic Migration Assay and Timelapse Microscopy: Neutrophils (1×10^3 cells) were placed uniformly across the migration channel and allowed to migrate under a linear gradient of human Interleukin-8 (72 a.a.; PeproTech, Rocky Hill, N.J.) in IMDM with 0.5% (w/v) FCS flowing at 0.1 mm/sec. […] Brightfield images were taken every 30 seconds using a C4742-95 Hamamatsu digital camera (Hamamatsu, Japan) controlled by IPLab 3.6.1 (Scanalytics, Fairfax, Va.). Cell movement was always observed at a set point along the migration channel. Gradients were also calibrated at this set point. Migration was quantified for all cells across the gradient.
Signaling Pathway Inhibitors: Cells were treated with pertussis toxin (100 ng/mL; 30 minutes at 37° C.), wortmannin (1 μM, 10 μM; 20 minutes at 37° C., 8-Br-cAMP (1 mM; 15 minutes at room temperature), 8-Br-cGMP (1 mM; 15 minutes at room temperature) (Sigma-Aldrich), or the CXCR2 non-peptide antagonist, SB225002 (1 pM, 100 pM, 1 nM, or 1 μM for 15 minutes at 37° C.; Calbiochem, Calif.). Immediately after treatment cells were seeded in migration channel of the microfluidic device and allowed to migrate as described above.
Since receptor occupancy is known to play a role in directional decision making and gradient sensing in the context of chemotaxing eukaryotic cells, it was postulated that chemokine receptor occupancy by a chemokine might also play a critical role in the decision of a cell to move up or down a chemokine gradient. Thus, a SB25002, the specific non-peptide antagonist of the IL-8 receptor, CXCR2 was utilized to examine this postulate. Neutrophils were pretreated with SB225002 at concentrations between 1 pM and 1 μM and then exposed to 0 to 1.2 μM gradients of IL-8 in microfabricated devices as described above. Videos of cell migration were analysed using MetaMorph and MathLab software to generate normalized angular frequencies determined for cells migrating in each of the three sectors of the gradient. The absence of inhibitor generates a normalized angular frequency of 1.0 whereas inhibition of fugetactic or chemotactic angular frequencies results in a normalized frequency of <1.0 and augmentation of either directional response results in a value greater than 1. This analysis allows to precisely quantitate the effect of a given concentration of inhibitor on the directional decision of the cell to move up or down a gradient. […] Furthermore, although IL-8 binds to both CXCR2 and CXCR1 on the cell surface, of the human neutrophil bi-directional signaling was evidently critically dependent on CXCR2.
It had been previously shown that the signaling pathway for chemotaxis is distinct from that for chemorepulsion or fugetaxis. […] The study of neutrophil migration in microfabricated devices allows to examine precisely the effects of these inhibitors on quantitative parameters of cell migration including the directional bias of cells in the context of precisely defined and stable chemokine gradients. Primary human neutrophils were pretreated with known inhibitors of the chemokine signal transduction pathway including pertussis toxin, wortmannin, genistein, 8-Br-cAMP and 8-Br-cGMP and then exposed to IL-8 gradients in which chemotaxis and fugetaxis were seen. The effect of the inhibitor on directional migration towards or away from the chemokine was quantitated by determining the directional motility index of cells migrating in the context of these gradients. Movement vector angles corresponding to movement up the gradient (30 to 150 degrees—see FIG. 13) were defined as chemotactic and measured movement vector angles corresponding to movement down the gradient (210 to 330 degrees—see figure) were defined as fugetactic. The directional choice of cells to move up or down a chemokine gradient were therefore compared in the presence and the absence of an inhibitor. […]

human neutrophils [2] = experiment: Microfluidic migration assay of neutrophils in linear gradients of IL-8; assay type: cell-based
Experimental: Neutrophil isolation: Human whole blood was obtained from healthy volunteers by venipuncture into tubes containing sodium heparin (Becton Dickinson, San Jose, Calif.). Whole blood was centrifuged for 4 minutes at 2400 rpm and plasma was removed. Resulting pellet was resuspended in Iscove's Modified Dulbecco's Medium (IMDM; Cellgro MediaTech, Herndon, Va.) with 0.5% (w/v) fetal calf serum FCS; Cellgro MediaTech). 25 mL of suspension was layered over 10 mL Lymphocyte Separation Medium (ICN, Irvine, Calif.) and centrifuged for 40 minutes at 1600 rpm at 22° C. Supernatant was aspirated, resulting pellet was resuspended in IMDM with 0.5% (w/v) FCS and 2% (w/v) dextran (Sigma-Aldrich, St. Louis, Mo.), and red blood cells (RBC) were allowed to sediment for 30 minutes at room temperature. Supernatant was transferred into clean tube and centrifuged for 5 minutes at 2000 rpm. Supernatant was aspirated, pellet was mixed with cold ddH2O for hypotonic lysis of remaining RBCs, and transferred to IMDM with 0.5% (w/v) FCS. Isolated neutrophils were washed and resuspended in IMDM with 0.5% (w/v) FCS, determined to be 95% pure, and 99% viable by Trypan Blue exclusion.
Fabrication and Preparation of Microfluidic Linear Gradient Generator: The microfluidic linear gradient generator was fabricated in poly(dimethylsiloxane) (PDMS; Sylgard 184, Dow Corning, N.Y.) using rapid prototyping and soft lithography as described previously. Briefly, a high resolution printer was used to generate a transparency mask from a computer-aided design image file. The mask was used in contact photolithography with SU-8 photoresist (Microlithography Chemical Co., Newton Mass.) to generate a positive relief of patterned photoresist on a silicon wafer. Replicas with embossed channels were fabricated by curing PDMS prepolymer against the patterned wafer. Inlet and outlet ports for media and cell suspension were bored out of the cured PDMS replica using a sharpened syringe needle. The PDMS replica and glass substrate were placed in an oxygen plasma generator (150 mTorr, 100 W) for 1 minute. Immediately following plasma treatment, the PDMS replica and glass were placed against each other and irreversibly bonded. Polyethylene tubing (Becton Dickenson) was inserted into inlet and outlet ports to make the fluidic connections. Tubing was connected to a PHD 2000 syringe pump (Harvard Apparatus, Holliston, Mass.) to complete the setup. Hemostats were used to control flow during cell loading.
as §1, with “[…];” for “cells) were placed uniformly across the migration channel and allowed to migrate under a linear gradient of human Interleukin-8 (72 a.a.;”
Construction of Digital Videos for Quantitative Analysis: Digital videos were mad from time-lapse video microscopy file stacks or S-VHS videotapes using a combination of IPLab 3.6.1, Photoshop 6.0 (Adobe Systems, San Jose, Calif.), and Apple QuickTime Pro 5.0 (Apple Computer, Cupertino, Calif.). Migration tracking was carried out using MetaMorph 4.5 (Universal Imaging, Downington, Pa.) object tracking application, which generated tables of Cartesian coordinate data for each tracked cell.
Mathematical Analysis of Cell Migration in Linear Gradient Generator: The angular correlation function, or cosine correlation function, was calculated for each experiment. For experiments with no gradient, the correlation function decayed exponentially with increasing time interval, while the function decayed much slower, potentially by a power law, for experiments with a gradient; in all cases correlation of angles over time was increased as absolute [IL-8] increased. […]

rat neutrophils = experiment: Intravital microscopy of rat neutrophil migration in response to diffusive CINC-1 gradients in mesentery; assay type: in vivo
Experimental: Intravital Microscopy: Male Sprague Dawley rats (200-300 g) were purchased from Harlan-Olac (Bicester, U.K.). Male rats were prepared for intravital microscopy. Briefly, following sedation with i.m. Hypnorm (fentanyl-fluanisone mixture, 0.1 ml; Janssen-Cilag, High Wycombe, U.K.), animals were anesthetized with i.v. sodium pentobarbitone (30 mg/kg loading dose followed by 30 mg/kg/h; Rhône Mérieux, Harlow, U.K). The animals were maintained at 37° C. on a custom-built heated microscope stage. Following midline abdominal incision, the mesentery adjoining the terminal ileum was carefully arranged over a glass window in the microscope stage and pinned in position. The mesentery was kept warm and moist by continuous application of Tyrode's balanced salt solution (Sigma Aldrich). Mesenteric post-capillary venules (15-40 μm in diameter) were viewed on an upright fixed-stage microscope (Axioskop F S, Carl Zeiss, Welwyn Garden City, U.K.) fitted with water immersion objectives. Images were captured with a digital camera (C5810-01, Hamamatsu Photonics U.K., Enfield, U.K.) for viewing on a monitor (PVM-1453 MD, Sony U.K., Weybridge, U.K.) and storage by videocassette recorder (AG-MD830E, Panasonic U.K., Bracknell, U.K.). […] Firmly adherent leukocytes were defined as those that remained stationary for at least 30 s within a 100-μm segment of a venule. Extravasated leukocytes were defined as those in the perivenular tissue adjacent to, but remaining within a distance of 150 μm of a 100-μm length of vessel segment under study. After baseline readings of rolling, adhesion and transmigration were taken; CINC-1 at final concentrations of 10^−9 M, […] or 10^−7M (Peprotech) was applied topically to the mesenteric tissue in the superfusion buffer. Leukocyte responses within the chosen vessels were quantified for up to 180 minutes, during which the topical application of CINC-1 was maintained. In each animal, multiple vessel segments from appropriate vessels were quantified. Videos of migrating cells were constucted for quantitative and mathematical analysis as described above; at the end of certain in vivo experiments, the mesentery was stained with acridine orange (Sigma Aldrich), a nuclear dye, scanned with a 488 nm laser line generated from an Argon laser, and observed by confocal microscopy (LSM5 PASCAL, Axioskop II FS, Carl Zeiss) to verify that migrating cells were neutrophils.
Mathematical Modeling of Continuous Gradients in vivo: The chemokine concentration profile in the mesentery at steady state was predicted using a novel in vivo model based on classical diffusion equations applied on a spherical model of the postcapillary venule, and the assumption that the receptor-dependent transport of the chemokine by the endothelial cells is the main mechanism for generating the gradient the vicinity of postcapillary venules. The steady state solution was calculated for the concentration gradient around a sphere in a homogenous medium, with the two boundary conditions: 1) the concentration far from the sphere is constant, and 2) the chemokine flux across the surface of the sphere also constant. […] Thus, the steady state concentration C at distance r from the capillary wall was calculated as: [formula] […]

[3] = pretreated cells, IL-8 gradients in which chemotaxis and fugetaxis were seen

For pertussis toxin, the “effect on neutrophil chemotaxis (angular frequency, movement up the gradient)” value (human neutrophils [1]; [3]) was “significantly inhibited” and the “effect on neutrophil fugetaxis (angular frequency, movement down the gradient)” value (human neutrophils [1]; [3]) was “significantly inhibited”.

In the case of O=C(Nc1ccc([N+](=O)[O-])cc1O)Nc1ccccc1Br [SB225002], the “effect on neutrophil chemotaxis (normalized angular frequency)” value (human neutrophils [1]; 1 pM and 100 pM inhibitor, 0 to 1.2 μM gradient of IL-8) is reported as “augmented”, the “effect on neutrophil fugetaxis (normalized angular frequency)” value (human neutrophils [1]; 1 pM inhibitor, 0 to 1.2 μM gradient of IL-8, p=0.0037) is reported as “significant inhibition” and the “effect on neutrophil fugetaxis (normalized angular frequency)” value (human neutrophils [1]; 100 pM inhibitor, 0 to 1.2 μM gradient of IL-8, p=0.0210) is reported as “significant inhibition”. For the same molecule, the “effect on neutrophil directional migration” value (human neutrophils [1]; gradually increasing concentrations (up to 1 μM), 0 to 1.2 μM gradient of IL-8) was “inhibited both fugetaxis and chemotaxis”.

In the case of “IL-8: human Interleukin-8 (72 a.a.; PeproTech), chemokine”, the “Persistence time of cell movement” value (human neutrophils [2]; IL-8 gradient in which chemotaxis is seen predominantly) is reported as 21.5 min, the “Persistence time of cell movement” value (human neutrophils [2]; IL-8 gradient in which fugetaxis is seen predominantly) is reported as 10.9 min and the neutrophil migratory behaviour (human neutrophils [2]; chemokine at a uniform concentration across the migration channel) is reported as “underwent chemokinesis”. The “mean chemotropism index (MCI)” value (human neutrophils [2]; gradient between 0 and 12 nM) was “+0.32”, the “mean chemotropism index (MCI)” value (human neutrophils [2]; gradient between 0 and 120 nM) was “+0.39” and the “mean chemotropism index (MCI)” value (human neutrophils [2]; gradient of 0 to 1.2 μM) was −0.13. For the same molecule, the neutrophil migratory behaviour (human neutrophils [2]; gradient of 0 to 1.2, cells commencing in the central third of the gradient) was “underwent chemokinesis”, the neutrophil migratory behaviour (human neutrophils [2]; gradient of 0 to 1.2, cells in the lower third of the gradient) was “chemotaxed towards higher levels of the chemokine” and the neutrophil migratory behaviour (human neutrophils [2]; gradient of 0 to 1.2, cells originating in the upper third of the gradient) was “underwent fugetaxis down the gradient”. The neutrophil migratory behaviour (human neutrophils [2]; gradients between 0 and 12 nM and 0 and 120 nM) was “predominantly demonstrated chemotaxis”, the “mean sectional MCI” value (human neutrophils [2]; lower segment of the 0 to 10.2 μM gradient) was “+0.2” and the “mean sectional MCI” value (human neutrophils [2]; middle third of the 0 to 10.2 μM gradient) was −0.14. For the same molecule, the neutrophil migratory behaviour (human neutrophils [2]; steepest gradient, 0 to 2.4 μM) was “underwent chemokinesis regardless of their position within the gradient”, the “Persistence time of cell movement” value (human neutrophils [2]; uniform concentration of IL-8 (chemokinesis)) was 4.5 min and the “mean chemotropism index (MCI)” value (human neutrophils [2]; uniform concentration of chemokine at 120 nM) was −0.02 +/−0.01. The “mean sectional MCI” value (human neutrophils [2]; upper third of the 0 to 10.2 μM gradient) was −0.22.

B1: CINC-1: rat IL-8 orthologue, cytokine induced neutrophil chemoattractant-1, signals via CXCR2 (protein, UniProt P14095 25-96, looked up)
Growth-regulated alpha protein: APVANELRCQCLQTVAGIHFKNIQSLKVMPPGPHCTQTEVIATLKNGREACLDPEAPMVQKIVQKMLKGVPK
In the case of B1, the “neutrophil response to superfused chemokine” value (rat neutrophils; 1 nM) is reported as “minimal neutrophil adhesion to the luminal surface of the venule and transmigration”, the “neutrophil response to superfused chemokine” value (rat neutrophils; 100 nM) is reported as “accumulation of neutrophils around the vessel without transmigration” and the “mean chemotropism index (MCI) in vivo” value (rat neutrophils; diffusive gradient with peak concentration of 10 nM) is reported as “+0.32+/−0.06”. The “mean chemotropism index (MCI) in vivo” value (rat neutrophils; gradient replaced with peak concentration of 100 nM) was −0.35+/−0.12 and the “peak chemokine concentration at which peak transendothelial migration of neutrophils from the blood occurred” value (rat neutrophils; superfusion at 1 nM, 10 nM or 100 nM for 90 minutes) was 10 nM.
